Experimental data from patent US9814754B2, “Combinations with a backbone-cyclized peptide” (POLYPHOR AG, priority 2012, dated 2017).

How the values were obtained:
Format in all cases: in vivo
[1] = system: Pseudomonas aeruginosa clinical isolate PAX11045; assay: Murine pneumonia model, compound 1 in combination with azithromycin (Example 2); settings: 50 mg/kg alone, lung
Description: The efficacy and ED50 of the compound of formula (I) (“compound 1”) in combination with azithromycin was determined against Pseudomonas aeruginosa clinical isolate PAX11045 in a pneumonia model in mice. Colony counts in lung were determined at 20 hours post treatment.
(§1) Fresh overnight colonies of PAX11045 from a 5% Horse Blood Agar plate were suspended in 0.9% sterile saline to approximately 10^8 CFU/ml and further diluted to approximately 5×10^7 CFU/ml. Female mice (DBA/2, outbred, 17-23 g, Charles River) were anesthetized with 0.1 ml of Zoletil and inoculated via the nose with a pipette with 0.05 ml of the bacteria suspension containing approximately 10^6 CFU. 4 hours after inoculation, the mice were treated orally with 45 μl neurophen (20 mg ibuprofen/ml corresponding to approximately 30 mg/kg) as pain relief.
(§2) 480 mg of azithromycin (Zitromax™, Pfizer) were dissolved in 4.8 ml 0.9% sterile saline to a concentration of 100 mg/ml and further diluted with saline to 5 mg/ml. The mice were treated subcutaneously with 0.2 ml in the neck region with a single dose at 3 hours post infection corresponding to 50 mg/kg on the basis of a mean animal weight of 20 g.
(§3) The mice were treated subcutaneously with 0.2 ml in the neck region with a single dose at 4 hours post infection with a dose calculation based on a mean animal weight of 20 g.
(§4) Colony counts were determined post inoculation at 4 hours (untreated mice) and 24 hours (treated and vehicle-only treated mice). Immediately after the mice were sacrificed, the lungs were collected and frozen at −20° C. After thawing, the organs were homogenized in 1 ml 0.9% saline. Each sample was then 10 fold diluted in saline and 20 μl spots were applied on blood agar plates. All agar plates were incubated 18-24 hours at 35° C. in ambient air.

[2] = system: Pseudomonas aeruginosa clinical isolate PAX11045; assay: Murine pneumonia model, compound 1 in combination with ertapenem (Example 1); settings: 50 mg/kg alone, lung, p<0.001
Description: The efficacy and ED50 of the compound of formula (I) (“compound 1”) in combination with ertapenem was determined against Pseudomonas aeruginosa clinical isolate PAX11045 in a pneumonia model in mice. Colony counts in lung were determined at 20 hours post treatment.
as §1, with “18-22” for “17-23”
as §2, with “1 g” for “480 mg”, “ertapenem (Invanz™, MSD Denmark Aps) was” for “azithromycin (Zitromax™, Pfizer) were”, “10” for “4.8”
as §3, §4
The CFU/ml in the inoculum was determined to 7.65 log10 CFU/ml corresponding to 6.35 log10 CFU/mouse.
At 4 hours after infection the mean log10 CFU/lung was 5.14 and the CFU level remained at a similar level after 24 hours in the vehicle-only group.

[3] = system: Pseudomonas aeruginosa clinical isolate PA18298; assay: Murine pneumonia model, compound 1 in combination with amikacin (Example 4); settings: lung
Description: The efficacy and ED50 of the compound of formula (I) (“compound 1”) in combination with amikacin was determined against Pseudomonas aeruginosa clinical isolate PA18298 in a pneumonia model in mice. Colony counts in lung were determined at 20 hours post treatment.
as §1, with “PA18298” for “PAX11045”, “18-22” for “17-23”
as §2, with “175” for “480”, “amikacin (Sigma)” for “azithromycin (Zitromax™, Pfizer)”, “5” for “4.8”, “35” for “100”, “3” for “5”, “30” for “50”
One vial containing 10 mg of active compound 1 was dissolved in 2 ml 0.9% sterile saline to a concentration of 5 mg/ml and further diluted with saline […], 1, 0.55, 0.275 and 0.137 mg/ml. The mice were treated subcutaneously with 0.2 ml in the neck region with a single dose at 4 hours post infection with a dose calculation based on a mean animal weight of 20 g. Colistin was used as a control in the same manner with a fixed dose of 20 mg/kg.
as §4
The CFU/ml in the inoculum was determined to 7.4 log10 CFU/ml corresponding to 6.17 log10 CFU/mouse.
At 4 hours after inoculation the mean log 10 CFU/lung was 5.06 and the CFU level declined to 1.55 mean log 10 CFU/lung after 24 hours in the vehicle group.

[4] = system: Pseudomonas aeruginosa clinical isolate PA18298; assay: Murine pneumonia model, compound 1 alone (Reference 3); settings: 20 mg/kg, positive control, lungs, p<0.001
Description: Efficacy in Murine Pneumonia Model Against Pseudomonas aeruginosa PA18298 and Estimation of ED50
The efficacy and ED50 of the compound of formula (I) (“compound 1”) was determined against Pseudomonas aeruginosa clinical isolate PA18298 in a pneumonia model in mice. Colony counts in the lungs were determined at 18-20 hours post treatment.
as §1, with “PA18298” for “PAX11045”, “4×10^7” for “5×10^7”, “18-22” for “17-23”, “Zoletil (tiletamine+zolazepam)” for “Zoletil”, “1×10^6” for “10^6”
One vial containing 10 mg of active compound 1 was dissolved in 2 ml 0.9% sterile saline to a concentration of 5 mg/ml and was further diluted with saline to 2, 1, 0.75, 0.55, 0.275 and 0.137 mg/ml. The mice were treated subcutaneously with 0.2 ml in the neck region with a single dose at 4 hours post infection with a dose calculation based on a mean animal weight of 20 g. As positive control colistin was used in the same manner with a fixed dose of 20 mg/kg.
as §4, with “10-fold” for “10 fold”, “18-48” for “18-24”
The CFU/ml in the inoculum was determined to 7.49 log10 CFU/ml corresponding to 6.20 log10 CFU/mouse.
At 4 hours after infection the mean log10 CFU/lung was 5.05 and the CFU level declined to 2.62 at 24 hours post inoculation in the vehicle-only group.

[5] = system: Pseudomonas aeruginosa clinical isolate PA9349; assay: Murine pneumonia model, compound 1 in combination with ciprofloxacin (Example 3); settings: colistin 20 mg/kg alone, lung
Description: Colony counts in lung were determined at 20 hours post treatment.
Fresh overnight colonies of PA9349 from a 5% Horse Blood Agar plate were suspended in 0.9% sterile saline to approximately 10^8 CFU/ml and further diluted to approximately 10^7 CFU/ml. Female mice (C57BL/6 […], outbred, 20-25 g, Hellenic Pasteur Institute) were anesthetized with ether and inoculated via the nose with a pipette with 0.05 ml of the bacteria suspension containing approximately 10^6 CFU. After inoculation, mice were treated with paracetamol suppositories as a pain relief.
The mice were treated subcutaneously with 0.2 ml in the neck region with a single dose at 3 hours post infection corresponding to 20 mg/kg on the basis of a mean animal weight of 20 g.
1 vial was further diluted with saline to 1, 0.8 and 0.4 mg/ml. The mice were treated subcutaneously with 0.25 ml (25 mg/kg dose) or 0.2 ml (for all other doses) in the neck region with a single dose at 4 hours post infection with a dose calculation based on a mean animal weight of 20 g.
as §4

CC[C@H]1OC(=O)[C@H](C)[C@@H](O[C@H]2C[C@@](C)(OC)[C@@H](O)[C@H](C)O2)[C@H](C)[C@@H](O[C@@H]2O[C@H](C)C[C@H](N(C)C)[C@H]2O)[C@](C)(O)C[C@@H](C)CN(C)[C@H](C)[C@@H](O)[C@]1(C)O [azithromycin, reference compound] was tested, and the “effect on bacterial loads” value [1] was “no effect on the bacterial loads”.

In the case of C[C@@H](O)[C@H]1C(=O)N2C(C(=O)O)=C(S[C@@H]3CN[C@H](C(=O)Nc4cccc(C(=O)O)c4)C3)[C@H](C)[C@H]12 [ertapenem, reference compound], the “effect on bacterial loads” value [2] is reported as “significant effect on reducing the bacterial loads”.

For NCC[C@H](O)C(=O)N[C@@H]1C[C@H](N)[C@@H](O[C@H]2O[C@H](CN)[C@@H](O)[C@H](O)[C@H]2O)[C@H](O)[C@H]1O[C@H]1O[C@H](CO)[C@@H](O)[C@H](N)[C@H]1O [amikacin, reference compound], the “effect on bacterial loads” value ([3]; amikacin 30 mg/kg alone) was “some effects on reducing the bacterial loads”.

colistin [reference compound] was tested, and the “effect on bacterial loads” value ([3]; colistin 20 mg/kg, control) was “some effects on reducing the bacterial loads”, the “effect on bacterial loads” value [4] was “some effect on reducing the bacterial loads” and the “effect on bacterial loads” value [5] was “no or only slight effects on the bacterial loads”.
